# Experiments:
# [1] = Specific surface area by BET analysis (nitrogen adsorption-desorption at 77 K); assay type: physicochemical; conditions: for BET surface (specific surface area): nitrogen adsorption at 77 K, 0.05-0.20 P/P0
# Description: Specific surface area was measured by Nitrogen adsorption-desorption analyses at 77 K with a volumetric adsorption analyser (Micromeritics 3Flex physisorption apparatus). The Brunauer—Emmet—Teller (BET) method was applied in the 0.05-0.20 P /PO range to calculate the specific surface area.
# [2] = Formulation study: mixing Compound A with liquid or solid acids, resulting composition and physical stability; assay type: physicochemical; conditions: Compound A alone, before mixing
# Description: In a round bottom flask, to a solution of A in anhydrous Et2O (6 mL/mmol) under argon atmosphere, the acid was added dropwise, as a pure liquid or in anhydrous Et2O (3 mL/mmol) solution. The mixture was allowed to stand for 3 h. The product was then isolated by evaporation of the solvent and was dried under vacuum.
# Two different net grinding procedures were used: • Solid mixing 1: In an Eppendorf, A (200 mg, 0.5 mmol) and the acid were added. The Eppendorf was then placed in the grinding device (Retsch MM400) and allowed to stir for 90 min at 30 Hz. • Solid mixing 2: In a mortar, A (200 mg, 0.5 mmol) and acid were added and then manually grinded with a pestle.
smiles,measurement,setting,value
"O=C1NS(=O)(=O)c2ccccc21 [Saccharin, 1,1-dioxo-1,2-benzothiazol-3-one]",BET surface (specific surface area),[1]; listed as Saccharin (commercial),9.9 m^2/g
"O=C1NS(=O)(=O)c2ccccc21 [Saccharin (after grinding), 1,1-dioxo-1,2-benzothiazol-3-one]",BET surface (specific surface area),[1],6.7 m^2/g
same,change of specific surface area (BET),"[1]; saccharin after grinding vs commercial, A-2SA vs saccharin alone after same grinding procedure",about −30%
FC(F)(F)c1ccc(-c2noc(CN3CCCC(CN4CCOCC4)C3)n2)cc1 (stereo not shown) [Compound A],physical form of free compound,[2],oil

# Reference: patent publication US12569440B2, “Solid formulation of a 1,2,4-oxadiazole derivative” (ABAXYS THERAPEUTICS, priority 2019, dated 2026)
